Assay results taken from US20150025034A1, “COMPOSITION FOR CARE AND HYGIENE OF THE AUDITORY CANAL” (LABORATOIRES GILBERT, priority 2012, published 2015).

Assay: In vitro assessment of the cerumenolytic effect on plugs of human cerumen
Conditions: 1 ml per 30 mg plug, 1 hour incubation, 37° C.
Method: The activity was assessed through the loss of weight of the plugs of cerumen caused by the dissolution of part of this plug, or more precisely the loss was calculated between the initial dry weight and the remaining dry weight after action of the product in the test.
Reference product: an aerosol spray based on pure sea water (nitrogen propellant), hereinafter referred to as T1, an aerosol spray containing sodium bicarbonate and polysorbate as active principles, hereinafter referred to as T2, and ultrapure water (type 1, Milli-Q water) are used as references. T1 and T2 are commercially available compositions used by way of compositions for the care and hygiene of the auditory channel and judged effective.
12 plugs of human cerumen, to a total weight of 1.55 grams, came from patients from the Ear, Nose and Throat Department of the Saint-Grégoire Hospital (35760). The plugs were mixed in order to obtain a homogeneous plug. […]
The effect sought is the dissolution of the plug. This dissolution is assessed by the loss of weight of the plug between the initial dry weight and the dry weight after incubation. […]
1 ml of composition CE1 and the reference compositions were added separately in previously weighed tubes and put in an oven at 90° C. for 48 hours in order to determine the quantity of dry residues of each composition. […]

O [pure water, water]
Dissolution of human cerumen (loss of dry weight of the plug): 51.5%
